This data set deals with dhBMECs monolayers. As to the kind of experiment: Melittin-induced disruption of dhBMEC monolayers (transwell assay). In kind it is cell-based, human. Here is the method: Induced pluripotent stem cell (iPSC)-derived brain microvascular endothelial cells (dhBMECs) mimic the barrier function of the human BBB. DhBMECs were differentiated as previously reported. The BC1 iPSC line derived from a healthy individual was used for all experiments. After eleven days of differentiation, cells were detached using Accutase (A1110501, Thermo Fisher Scientific), and seeded onto transwells, glass slides, or type I collagen microchannels coated overnight with 50 μg mL^−1 human placental collagen IV (Catalog Number (Cat. No.) C5533, Sigma-Aldrich) and 25 μg mL^−1 fibronectin from human plasma (Cat. No. F1141, Sigma-Aldrich). Cells have previously been characterized for expression of tight junction proteins, efflux pumps, and nutrient transporters as well as measurements of barrier function including transendothelial electrical resistance (TEER) or solute permeability. Here, cells with TEER of at least 1500 Ω cm2 were used for all experiments. After detachment, cells were cultured in BBB induction medium: human endothelial cell serum-free medium (HESFM) (Cat. No. 11111044, Thermo Fisher Scientific) supplemented with 1% human platelet poor derived serum (Cat. No. P2918, Sigma-Aldrich), 1% penicillin-streptomycin (Cat. No. 15140122, Thermo Fisher Scientific), 2 ng mL^−1 bFGF (Cat. No. 233FB025CF, Fisher Scientific), and 10 μM all-trans retinoic acid (Cat. No R2625, Sigma-Aldrich). After 24 hours, cells were further cultured in BBB maintenance medium: HESFM supplemented with 1% human platelet poor derived serum and 1% penicillin-streptomycin. Human cortical neuron HCN-2 cells (CRL-10742) were obtained from ATCC (Manassas, VA, USA). HCN-2 cells were cultured in DMEM (Cat. No. 31600091, Thermo Fisher Scientific), adjusted to contain 1.5 g L^−1 sodium bicarbonate, 4.5 g L^−1 D-glucose, and supplemented with 10% heat-inactivated FBS (Cat. No. F4135, Sigma-Aldrich), following ATCC recommendations.
Corning transwell supports (Cat. No. 3470) were coated with 25 μg mL^−1 fibronectin and 50 μg mL^−1 collagen IV overnight at 37° C. DhBMECs were seeded on transwells in BBB induction medium at 10^6 cells cm^−2. […] On day 2, the TEER for monolayers was measured using EVOM-2 and STX-100 electrode (World Precision Instruments, Sarasota, FL), and monolayers with TEER>1500 Ω cm2 were used for the permeability experiment. […] After the permeability experiment, the TEER across monolayers was measured. Dextran fluorescence in the receiving chamber and in the initial apical solution (Co) was measured using the Synergy H4 plate reader (Biotek Instruments Inc., Winooski, VT) and was converted to dextran concentrations using the dextran-fluorescein standard curves. The apparent permeability (Papp) was calculated from Formula 1 below: […]

As to `CC[C@H](C)[C@H](NC(=O)CN)C(=O)NCC(=O)N[C@@H](C)C(=O)N[C@H](C(=O)N[C@@H](CC(C)C)C(=O)N[C@@H](CCCCN)C(=O)N[C@H](C(=O)N[C@@H](CC(C)C)C(=O)N[C@H](C(=O)N[C@H](C(=O)NCC(=O)N[C@@H](CC(C)C)C(=O)N1CCC[C@H]1C(=O)N[C@@H](C)C(=O)N[C@@H](CC(C)C)C(=O)N[C@H](C(=O)N[C@@H](CO)C(=O)N[C@@H](Cc1c[nH]c2ccccc12)C(=O)N[C@H](C(=O)N[C@@H](CCCCN)C(=O)N[C@@H](CCCNC(=N)N)C(=O)N[C@@H](CCCCN)C(=O)N[C@@H](CCCNC(=N)N)C(=O)N[C@@H](CCC(N)=O)C(=O)N[C@@H](CCC(N)=O)C(N)=O)[C@@H](C)CC)[C@@H](C)CC)[C@@H](C)O)[C@@H](C)O)C(C)C)C(C)C` [melittin], the “concentrations for membrane activity” value was in the range of 1 to 10 µM. Also, the “500 kDa dextran permeability across dhBMECs” value (5 μM melittin for 90 minutes, transwell) is “increased”. Besides, for the setting “confluent dhBMEC monolayers”, the “concentration above which disruption is induced in confluent monolayers” value is “above 1 μM”. Under “dhBMECs on glass slides, 5 μM melittin for 90 minutes”, the “cell morphology (phase contrast)” value is “cell swelling and detachment”.

The record behind these values is patent US20240009269A1 (priority 2020, published 2024).
